System: Mv1Lu mink lung epithelial cells
Assay: 1536 well BrdU cytoblot
Type: cell-based
Settings: 1536-well plate, approximately 500 cells per well
Description: FIG. 3. BrdU incorporation can be efficiently detected with a cytoblot in 1536 well plates in 2 μL droplets. 500 Mv1Lu mink lung epithelial cells were seeded in each well of a white, opaque 1536 well plate (Corning/Costar, Corning, N.Y.). The cells were seeded with or without […] TGF-β in 2 μL of 1% mink medium and allowed to incubate at 37° C. with 5% CO2. After 24 hours, 0.5 μL of 50 μM BrdU in 1% mink medium was added to the indicated wells, for a final concentration of 10 μM BrdU. The plate were incubated at 37° C. with 5% CO2 for an additional 12 hours and then an anti-BrdU cytoblot protocol was performed (see protocols). Wells are magnified as indicated.
Thus, the application of the cytoblot assay to plates containing a higher density of wells was tested. Mink lung cells were seeded into opaque, white 1536-well plates with each well containing approximately 500 cells. Next, the ability of TGF-β to prevent BrdU incorporation was assayed. […] The following protocol provides experimental detail.
The reagents to be tested were prepared in 1536 well plates (Greiner America, Lake Mary, Fla.), with one or more test compounds per well. If the test compounds were attached on solid support (beads), then the beads were distributed into individual wells of 1536 well white plate in acetonitrile. […]

With “TGF-β: anti-mitogen transforming growth factor β, multifunctional polypeptide signaling factor” the BrdU incorporation was “effectively prevents BrdU incorporation”.

Source: patent US20080311589A1, “METHOD OF HIGH-THROUGHPUT SCREENING OF MOLECULES AND COMPOUNDS FOR THEIR EFFECTS ON BIOLOGICAL AND CHEMICAL PROCESSES” (priority 1999, published 2008)
